Measurements reported in patent publication US9890147B2 (BAYER PHARMA AKTIENGESELLSCHAFT, priority 2012, dated 2018).

Tests used:
MDA-MB-231 cells = assay: Cell proliferation assay (alamarBlue), MDA-MB-231; type: cell-based; conditions: Homo sapiens; inhibition of cell proliferation, MDA-MB-231 (breast carcinoma), 96 hours
Procedure: (§1) In accordance with the invention, the capability of the substances to inhibit cell proliferation was determined Cell viability was determined using the alamarBlue® reagent (Invitrogen) in a Victor X3 Multilabel Reader (Perkin Elmer). The excitation wavelength was 530 nm and the emission wavelenth […].
The MDA-MB-231 cells (DSMZ, ACC 732) were sown at a concentration of 4000 cells/well in 100 μl growth medium (DMEM/Ham's F12 medium, 10% FCS) on 96-well microtitre plates. The Caov-3 cells (ATCC, HTB-75) were sown at a concentration of 2000 cells/well in 100 μl growth medium (MEM Earle's medium, 10% FCS) on 96-well microtitre plates.
(§2) After an overnight incubation at 37° C., the fluorescence values (CI values) were determined. The plates were then treated with various substance dilutions (1E-5 M, 3E-6 M, 1E-6M, 3E-7 M, 1E-7 M, 3E-8 M, 1E-8 M) and incubated at 37° C. for 72 (MV4-11-, LOX-IMVI cells), 96 (MOLM-13-, B16F10-, MDA-MB-431-, Caov-3 cells), 120 (MOLP-8-, KMS-12-PE cells) or 168 (LAPC-4 cells) hours. The fluorescence values (CO values) were then determined. For the data analysis, the CI values were subtracted from the CO values and the results were compared between cells treated with different dilutions of the substance or with buffer solution only. These were used to calculate the IC 50 values (substance concentration required for 50% inhibition of cell proliferation).

KMS-12-PE cells = assay: Cell proliferation assay (alamarBlue), KMS-12-PE; type: cell-based; conditions: Homo sapiens, 120 hours incubation, inhibition of cell proliferation
Outline: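 KMS-12-PE myeloma cells in RPMI1640 with 20% FCS were exposed to compound (1E-5 to 1E-8 M) for 120 h at 37° C. AlamarBlue fluorescence (ex 530, em 590 nm) read before and after treatment; the difference versus buffer-treated cells gave IC50.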

LOX-IMVI cells = assay: Cell proliferation assay (alamarBlue), LOX-IMVI; type: cell-based; conditions: Homo sapiens, 72 hours incubation, inhibition of cell proliferation
Outline: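 Cells seeded at 1000/well in RPMI1640 with 10% FCS, incubated overnight at 37° C, then treated with dilutions from 1E-5 to 1E-8 M for 72 h. Viability read by alamarBlue fluorescence (ex 530/em 590 nm); pre-treatment values subtracted and compared with buffer-only cells to derive IC50.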

MOLP-8 cells = assay: Cell proliferation assay (alamarBlue), MOLP-8; type: cell-based; conditions: Homo sapiens, 120 hours incubation, inhibition of cell proliferation
Outline: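 MOLP-8 cells in RPMI1640 with 20% FCS, 4000 cells/well, treated overnight after seeding with substance at 1E-5 to 1E-8 M for 120 h at 37° C. Viability read by alamarBlue fluorescence (ex 530, em 590); pre-treatment values subtracted, compared with buffer-only cells to derive IC50.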

MV4-11 cells = assay: Cell proliferation assay (alamarBlue), MV4-11; type: cell-based; conditions: Homo sapiens, 72 hours incubation, inhibition of cell proliferation
Outline: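 Cells seeded at 5000/well in RPMI1640 + 10% FCS, incubated overnight at 37° C, then treated with compound (1E-5 to 1E-8 M) for 72 h at 37° C. Viability by alamarBlue fluorescence (ex 530/em 590 nm); pre-treatment readings subtracted, IC50 derived versus buffer-treated cells.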

BRD4 (BD1) = target: T1, BRD4 (BD1) (Homo sapiens, UniProt O60885); assay: Binding assay BRD4/acetylated peptide H4 (TR-FRET protein-protein interaction assay)
T1 construct: with relatively long constructs also being possible, preferably amino acids 44-168; made in house; host or cells: E. coli
Outline: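 His6-BRD4 BD1 (aa 67-152, E. coli), usually 10 nM, with biotinylated tetra-acetylated H4 peptide in HEPES pH 7.5 buffer; 11 compound concentrations 0.1 nM–20 μM in duplicate, 10 min preincubation, 1 h at 22 °C then ≥3 h at 4 °C. TR-FRET 665/620 ratio; IC50 by 4-parameter fit.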

B16F10 cells = assay: Cell proliferation assay (alamarBlue), B16F10; type: cell-based; conditions: Mus musculus, B16-F10, 96 hours incubation, inhibition of cell proliferation
Outline: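 alamarBlue fluorescence (ex 530/em 590 nm) read after overnight seeding at 300-500 cells/well in DMEM + 10% FCS, then after 96 h at 37 °C with compound at 1E-8 to 1E-5 M. Baseline subtracted from endpoint, compared with buffer-treated cells; IC50 = concentration giving 50% proliferation inhibition.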

LAPC-4 cells = assay: Cell proliferation assay (alamarBlue), LAPC-4; type: cell-based; conditions: Homo sapiens, LAPC4; inhibition of cell proliferation, LAPC-4 (prostate cancer), 1 nM methyltrienolone, 168 hours
Procedure: as §1
The LAPC-4 cells (ATCC, PTA-1441TM) were sown at a concentration of 4000 cells/well in 100 μl growth medium (RPMI1640, 2 mM L-glutamine, 10% cFCS) on 96-well microtitre plates. A day later, the LAPC-4 cells were treated with 1 nM methyltrienolone and various substance dilutions.
as §2

Caov-3 cells = assay: Cell proliferation assay (alamarBlue), Caov-3; type: cell-based; conditions: Homo sapiens; inhibition of cell proliferation, Caov-3 (ovarian carcinoma), 96 hours
Outline: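 Caov-3 (MEM Earle's, 10% FCS, 2000 cells/well) and MDA-MB-231 (DMEM/Ham's F12, 10% FCS, 4000 cells/well) were treated after overnight attachment with 1E-5 to 1E-8 M compound. Caov-3 exposure was 96 h. alamarBlue fluorescence (ex 530, em 590 nm) was read after background subtraction of day-0 values, and IC50 calculated versus buffer-treated cells.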

MOLM-13 cells = assay: Cell proliferation assay (alamarBlue), MOLM-13; type: cell-based; conditions: Homo sapiens, 96 hours incubation, inhibition of cell proliferation
Outline: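 Cells in RPMI1640/10% FCS read by alamarBlue fluorescence (ex 530, em 590 nm) after overnight 37 °C incubation, then treated at 1E-5 to 1E-8 M for 96 h. Pre-treatment values subtracted from endpoint values and compared with buffer-only wells; IC50 is 50% proliferation inhibition.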

SMILES	IC50 (MDA-MB-231 cells) [µM]	IC50 (KMS-12-PE cells) [µM]	IC50 (LOX-IMVI cells) [µM]	IC50 (MOLP-8 cells) [µM]	IC50 (MV4-11 cells) [µM]	IC50 (BRD4 (BD1)) [µM]	IC50 (B16F10 cells) [µM]	IC50 (LAPC-4 cells) [µM]	IC50 (Caov-3 cells) [µM]	IC50 (MOLM-13 cells) [µM]
CNC(=O)N1N=C(c2ccc(-c3c(C)noc3C)cc2)c2cc(OC)c(OC)cc2CC1C (racemic) [Example 2, (±)-1-[4-(3,5-Dimethyl-4-isoxazolyl)phenyl]-7,8-dimethoxy-N,4-dimethyl-4,5-dihydro-3H-2,3-benzodiazepine-3-carboxamide]	0.31	0.09	0.43	0.12	0.11	0.08	0.18	0.24	0.31	0.17
CNC(=O)N1N=C(c2ccc(-c3cc[nH]n3)cc2)c2cc(OC)c(OC)cc2CC1C (racemic) [Example 3, (±)-7,8-Dimethoxy-N,4-dimethyl-1-[4-(1H-pyrazol-3-yl)phenyl]-4,5-dihydro-3H-2,3-benzodiazepine-3-carboxamide]	0.21	0.23	0.95	0.28	0.26	0.05	0.11	0.11	0.55	0.24
CNC(=O)N1N=C(c2ccc(-c3cccnc3Cl)cc2)c2cc(OC)c(OC)cc2CC1C (racemic) [Example 4, (±)-1-[4-(2-chloropyridin-3-yl)phenyl]-7,8-dimethoxy-N,4-dimethyl-4,5-dihydro-3H-2,3-benzodiazepine-3-carboxamide]	0.17	0.11	0.45	0.17	0.12	0.08	0.11	0.09	0.32	0.19
CNC(=O)N1N=C(c2ccc(N3CCOCC3)cc2)c2cc(OC)c(OC)cc2CC1C (racemic) [Example 7, (±)-7,8-Dimethoxy-N,4-dimethyl-1-[4-(morpholin-4-yl)phenyl]-4,5-dihydro-3H-2,3-benzodiazepine-3-carboxamide]	0.25	0.09	0.57	0.12	0.17	0.03	0.14	0.09	0.4	0.2
CNC(=O)N1N=C(c2ccc(Cl)cc2)c2cc(N3CCN(C)CC3)ccc2CC1C (racemic) [Example 12, (±)-1-(4-Chlorophenyl)-N,4-dimethyl-8-(4-methylpiperazin-1-yl)-4,5-dihydro-3H-2,3-benzodiazepine-3-carboxamide]	1.85					0.54	1.32	0.87		1.61
CNC(=O)N1N=C(c2ccc(Cl)cc2)c2cc(N3CCCCC3)ccc2CC1C (racemic) [Example 13]	1.3					0.21	0.92	0.9		1.44
CNC(=O)N1N=C(c2cccnc2)c2cc(OC)ccc2CC1C (racemic) [Example 14, (±)-8-Methoxy-N,4-dimethyl-1-(pyridin-3-yl)-4,5-dihydro-3H-2,3-benzodiazepine-3-carboxamide]	3.64					0.59	2.63	1.65		3.07
CNC(=O)N1N=C(c2ccc(Cl)cc2)c2cc(OC(F)(F)F)ccc2C[C@@H]1C [Example 1.1, (4S)-1-(4-Chlorophenyl)-N,4-dimethyl-8-(trifluoromethoxy)-4,5-dihydro-3H-2,3-benzodiazepine-3-carboxamide]	0.53			0.51		0.06	0.39	0.6		0.39
CNC(=O)N1N=C(c2ccc(Cl)cc2)c2cc(OC(F)(F)F)ccc2C[C@H]1C [Example 1.2, (4R)-1-(4-Chlorophenyl)-N,4-dimethyl-8-(trifluoromethoxy)-4,5-dihydro-3H-2,3-benzodiazepine-3-carboxamide]	> 10					2.5	> 10	5.17		> 10
CNC(=O)N1N=C(c2ccc(-c3c(C)noc3C)cc2)c2cc(OC)c(OC)cc2C[C@H]1C [Example 2.1, (4R)-1-[4-(3,5-Dimethyl-4-isoxazolyl)phenyl]-7,8-dimethoxy-N,4-dimethyl-4,5-dihydro-3H-2,3-benzodiazepine-3-carboxamide]	1.39					0.25	1.05	0.71		1.51
CNC(=O)N1N=C(c2ccc(-c3c(C)noc3C)cc2)c2cc(OC)c(OC)cc2C[C@@H]1C [Example 2.2, (4S)-1-[4-(3,5-Dimethyl-4-isoxazolyl)phenyl]-7,8-dimethoxy-N,4-dimethyl-4,5-dihydro-3H-2,3-benzodiazepine-3-carboxamide]	0.2	0.11	0.33	0.12	0.1	0.06	0.11	0.09	0.25	0.13
CNC(=O)N1N=C(c2ccc(-c3c(C)nn(C)c3C)cc2)c2cc(OC)ccc2C[C@@H]1C [Example 22, (4S)-8-methoxy-N,4-dimethyl-1-[4-(1,3,5-trimethyl-1H-pyrazol-4-yl)phenyl]-4,5-dihydro-3H-2,3-benzodiazepine-3-carboxamide]	0.15	0.11	0.24	0.09	0.88	0.03	0.1	0.06	0.11	0.08
CNC(=O)N1N=C(c2ccc(N3CCOCC3=O)cc2)c2cc(OC)c(OC)cc2C[C@@H]1C [Example 40.1, (4S)-7,8-dimethoxy-N,4-dimethyl-1-[4-(3-oxomorpholin-4-yl)phenyl]-4,5-dihydro-3H-2,3-benzodiazepine-3-carboxamide]	1.28	0.08	0.33	0.59	0.76	0.12	0.79	0.29		0.96
